Measured values: patent US20250243171A1, “QUINAZOLINE COMPOUNDS FOR TREATMENT OF DISEASE” (Arthrosi Therapeutics, Inc., priority 2021, published 2025)

Columns and labels:
Assay in all cases: EC50 assay: Ba/F3 stable cell proliferation (CCK-8, 72 h)
Type in all cases: cell-based
[1] = target: T1, Ba/F3 stable cells (Homo sapiens, UniProt P00533, DUP767-769, cells depend on it); conditions: Ba/F3-EGFR V769-D770insASV cells
T1 construct: EC50 Ba/F3-EGFR V769-D770insASV; other: Ba/F3-EGFR V769-D770insASV cells, 72 h, CCK-8
Summary of the method: (§1)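 Ba/F3 stable cells were seeded at 4,000 cells/90 μL/well in 96-well plates and held 2 h at 37° C. in 5% CO2, then given 10 μL of serially titrated compound (0.1% DMSO final). After 72 h at 37° C., CCK-8 reagent was added for 4 hours and absorbance read at 450 nm to derive EC50.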

[2] = target: T2, Ba/F3 stable cells (Homo sapiens, UniProt P00533, DUP768-770, cells depend on it); conditions: Ba/F3-EGFR D770-N771insSVD cells
T2 construct: EC50 Ba/F3-EGFR D770-N771insSVD; other: Ba/F3-EGFR D770-N771insSVD cells, 72 h, CCK-8
Summary of the method: as §1

[3] = target: T3, Ba/F3 stable cells (Homo sapiens, UniProt P00533, DUP771-773, cells depend on it); conditions: Ba/F3-EGFR H773-V774insNPH cells
T3 construct: EC50 Ba/F3-EGFR H773-V774insNPH; other: Ba/F3-EGFR H773-V774insNPH cells, 72 h, CCK-8
Summary of the method: as §1

[4] = target: T4, Ba/F3 stable cells (Homo sapiens, UniProt P00533, INS763FQEA, cells depend on it); conditions: Ba/F3-EGFR A763-Y764insFQEA cells
T4 construct: EC50 Ba/F3-EGFR A763-Y764insFQEA; other: Ba/F3-EGFR A763-Y764insFQEA cells, 72 h, CCK-8
Summary of the method: as §1

[5] = target: T5, Ba/F3 stable cells (Homo sapiens, UniProt P00533, T790M/L858R, cells depend on it); conditions: Ba/F3-EGFR L858R-T790M cells
T5 construct: EC50 Ba/F3-EGFR L858R-T790M; other: Ba/F3-EGFR L858R-T790M cells, 72 h, CCK-8
Summary of the method: as §1

[6] = target: T6, Ba/F3 stable cells (Homo sapiens, UniProt P04626, DUP772-775, cells depend on it); conditions: Ba/F3-HER2 A775-G776insYVMA cells
T6 construct: EC50 Ba/F3-HER2 A775-G776insYVMA; other: Ba/F3-HER2 A775-G776insYVMA cells, 72 h, CCK-8
Summary of the method: as §1

T6 sequence (P04626 with tags, fused parts or gaps DUP772-775): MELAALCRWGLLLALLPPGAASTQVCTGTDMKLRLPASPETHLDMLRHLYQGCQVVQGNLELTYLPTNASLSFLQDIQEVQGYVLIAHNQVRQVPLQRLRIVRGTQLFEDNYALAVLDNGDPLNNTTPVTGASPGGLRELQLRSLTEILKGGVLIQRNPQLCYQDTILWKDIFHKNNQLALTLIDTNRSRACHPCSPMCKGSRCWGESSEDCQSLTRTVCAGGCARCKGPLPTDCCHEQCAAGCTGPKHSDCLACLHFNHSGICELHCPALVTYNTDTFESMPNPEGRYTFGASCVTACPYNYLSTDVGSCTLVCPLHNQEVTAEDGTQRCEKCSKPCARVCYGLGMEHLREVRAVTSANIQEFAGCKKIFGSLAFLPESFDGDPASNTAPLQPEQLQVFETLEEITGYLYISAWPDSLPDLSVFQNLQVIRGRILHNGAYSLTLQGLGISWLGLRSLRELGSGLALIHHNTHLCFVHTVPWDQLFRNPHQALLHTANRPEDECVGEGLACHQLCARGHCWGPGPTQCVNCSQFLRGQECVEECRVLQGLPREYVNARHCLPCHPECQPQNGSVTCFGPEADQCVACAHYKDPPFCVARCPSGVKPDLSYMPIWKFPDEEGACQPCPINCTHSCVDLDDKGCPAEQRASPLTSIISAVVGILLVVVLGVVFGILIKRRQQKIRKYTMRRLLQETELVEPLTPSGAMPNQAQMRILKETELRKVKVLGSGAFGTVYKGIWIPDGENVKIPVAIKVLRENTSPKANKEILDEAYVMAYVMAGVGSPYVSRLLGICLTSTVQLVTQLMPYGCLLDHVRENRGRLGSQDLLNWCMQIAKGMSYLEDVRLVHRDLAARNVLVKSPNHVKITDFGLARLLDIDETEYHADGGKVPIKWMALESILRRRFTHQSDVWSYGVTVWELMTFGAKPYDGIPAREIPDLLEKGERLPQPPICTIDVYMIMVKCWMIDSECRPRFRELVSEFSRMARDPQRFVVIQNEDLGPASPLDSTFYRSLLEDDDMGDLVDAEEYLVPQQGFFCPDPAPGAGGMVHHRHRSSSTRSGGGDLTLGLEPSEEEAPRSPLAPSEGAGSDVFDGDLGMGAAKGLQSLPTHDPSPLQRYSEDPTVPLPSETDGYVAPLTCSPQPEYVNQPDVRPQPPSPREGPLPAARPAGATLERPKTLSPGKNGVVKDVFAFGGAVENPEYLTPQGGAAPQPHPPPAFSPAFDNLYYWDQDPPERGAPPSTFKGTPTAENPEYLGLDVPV
T1 sequence (P00533 with tags, fused parts or gaps DUP767-769): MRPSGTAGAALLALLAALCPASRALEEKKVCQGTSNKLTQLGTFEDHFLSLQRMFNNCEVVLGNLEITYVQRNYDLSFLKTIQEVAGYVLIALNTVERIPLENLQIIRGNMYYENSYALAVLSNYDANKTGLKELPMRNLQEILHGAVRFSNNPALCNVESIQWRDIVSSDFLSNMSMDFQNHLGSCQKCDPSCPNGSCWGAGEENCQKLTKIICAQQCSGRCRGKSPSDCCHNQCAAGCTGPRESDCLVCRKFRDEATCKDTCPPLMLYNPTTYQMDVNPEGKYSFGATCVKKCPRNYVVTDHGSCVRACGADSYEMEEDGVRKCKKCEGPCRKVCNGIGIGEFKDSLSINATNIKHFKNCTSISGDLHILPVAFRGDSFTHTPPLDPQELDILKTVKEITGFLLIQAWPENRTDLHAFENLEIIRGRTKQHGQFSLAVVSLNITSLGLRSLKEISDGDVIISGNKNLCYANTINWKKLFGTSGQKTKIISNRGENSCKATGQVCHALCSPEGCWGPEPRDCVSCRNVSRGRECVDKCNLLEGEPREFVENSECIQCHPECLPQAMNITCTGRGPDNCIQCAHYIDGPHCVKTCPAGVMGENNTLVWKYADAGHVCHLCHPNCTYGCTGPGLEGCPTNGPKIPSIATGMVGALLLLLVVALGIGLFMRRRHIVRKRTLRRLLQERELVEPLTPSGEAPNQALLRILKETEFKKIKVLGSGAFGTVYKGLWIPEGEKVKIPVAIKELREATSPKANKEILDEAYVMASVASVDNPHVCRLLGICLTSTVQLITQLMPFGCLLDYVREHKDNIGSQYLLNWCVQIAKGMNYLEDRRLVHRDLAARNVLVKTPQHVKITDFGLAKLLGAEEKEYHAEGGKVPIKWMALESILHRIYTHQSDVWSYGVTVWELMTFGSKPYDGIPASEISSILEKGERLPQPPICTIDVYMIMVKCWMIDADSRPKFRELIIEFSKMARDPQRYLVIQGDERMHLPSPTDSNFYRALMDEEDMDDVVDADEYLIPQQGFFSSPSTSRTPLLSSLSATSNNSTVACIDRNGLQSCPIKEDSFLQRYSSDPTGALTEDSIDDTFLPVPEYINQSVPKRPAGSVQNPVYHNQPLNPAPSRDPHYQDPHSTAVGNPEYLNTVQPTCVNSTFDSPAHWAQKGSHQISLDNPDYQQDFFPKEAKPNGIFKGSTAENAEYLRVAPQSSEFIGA
T5 sequence (P00533 whole entry T790M/L858R): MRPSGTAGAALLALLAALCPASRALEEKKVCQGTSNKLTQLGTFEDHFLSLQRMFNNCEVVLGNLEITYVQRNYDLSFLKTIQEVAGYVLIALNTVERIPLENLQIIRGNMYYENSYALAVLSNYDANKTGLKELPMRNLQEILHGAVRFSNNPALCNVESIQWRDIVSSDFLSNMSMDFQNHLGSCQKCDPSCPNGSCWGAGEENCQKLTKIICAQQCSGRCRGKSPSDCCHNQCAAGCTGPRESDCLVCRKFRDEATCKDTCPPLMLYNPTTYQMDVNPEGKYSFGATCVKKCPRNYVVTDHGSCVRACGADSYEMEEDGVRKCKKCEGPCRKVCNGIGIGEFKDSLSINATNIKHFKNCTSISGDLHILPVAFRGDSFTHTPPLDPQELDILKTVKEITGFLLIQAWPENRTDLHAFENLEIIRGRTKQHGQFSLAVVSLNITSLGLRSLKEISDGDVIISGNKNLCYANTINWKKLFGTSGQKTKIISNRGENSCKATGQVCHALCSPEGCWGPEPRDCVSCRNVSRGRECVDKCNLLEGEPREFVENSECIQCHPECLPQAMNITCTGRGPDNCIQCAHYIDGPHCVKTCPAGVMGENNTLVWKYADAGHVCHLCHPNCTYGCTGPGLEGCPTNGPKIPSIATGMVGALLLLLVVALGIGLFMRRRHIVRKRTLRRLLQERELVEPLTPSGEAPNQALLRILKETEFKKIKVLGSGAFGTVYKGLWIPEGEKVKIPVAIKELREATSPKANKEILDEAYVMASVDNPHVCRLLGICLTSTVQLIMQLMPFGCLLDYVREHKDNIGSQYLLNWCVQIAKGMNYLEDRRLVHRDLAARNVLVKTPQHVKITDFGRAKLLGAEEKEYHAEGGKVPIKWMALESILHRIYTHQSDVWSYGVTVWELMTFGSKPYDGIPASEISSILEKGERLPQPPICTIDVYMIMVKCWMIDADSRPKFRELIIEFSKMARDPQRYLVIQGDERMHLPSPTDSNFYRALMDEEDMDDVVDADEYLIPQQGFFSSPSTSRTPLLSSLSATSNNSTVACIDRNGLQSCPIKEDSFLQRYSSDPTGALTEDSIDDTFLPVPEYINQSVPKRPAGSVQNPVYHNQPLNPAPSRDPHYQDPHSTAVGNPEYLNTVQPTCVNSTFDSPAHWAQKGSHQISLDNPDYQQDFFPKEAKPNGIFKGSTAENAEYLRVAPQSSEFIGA
T3 sequence (P00533 with tags, fused parts or gaps DUP771-773): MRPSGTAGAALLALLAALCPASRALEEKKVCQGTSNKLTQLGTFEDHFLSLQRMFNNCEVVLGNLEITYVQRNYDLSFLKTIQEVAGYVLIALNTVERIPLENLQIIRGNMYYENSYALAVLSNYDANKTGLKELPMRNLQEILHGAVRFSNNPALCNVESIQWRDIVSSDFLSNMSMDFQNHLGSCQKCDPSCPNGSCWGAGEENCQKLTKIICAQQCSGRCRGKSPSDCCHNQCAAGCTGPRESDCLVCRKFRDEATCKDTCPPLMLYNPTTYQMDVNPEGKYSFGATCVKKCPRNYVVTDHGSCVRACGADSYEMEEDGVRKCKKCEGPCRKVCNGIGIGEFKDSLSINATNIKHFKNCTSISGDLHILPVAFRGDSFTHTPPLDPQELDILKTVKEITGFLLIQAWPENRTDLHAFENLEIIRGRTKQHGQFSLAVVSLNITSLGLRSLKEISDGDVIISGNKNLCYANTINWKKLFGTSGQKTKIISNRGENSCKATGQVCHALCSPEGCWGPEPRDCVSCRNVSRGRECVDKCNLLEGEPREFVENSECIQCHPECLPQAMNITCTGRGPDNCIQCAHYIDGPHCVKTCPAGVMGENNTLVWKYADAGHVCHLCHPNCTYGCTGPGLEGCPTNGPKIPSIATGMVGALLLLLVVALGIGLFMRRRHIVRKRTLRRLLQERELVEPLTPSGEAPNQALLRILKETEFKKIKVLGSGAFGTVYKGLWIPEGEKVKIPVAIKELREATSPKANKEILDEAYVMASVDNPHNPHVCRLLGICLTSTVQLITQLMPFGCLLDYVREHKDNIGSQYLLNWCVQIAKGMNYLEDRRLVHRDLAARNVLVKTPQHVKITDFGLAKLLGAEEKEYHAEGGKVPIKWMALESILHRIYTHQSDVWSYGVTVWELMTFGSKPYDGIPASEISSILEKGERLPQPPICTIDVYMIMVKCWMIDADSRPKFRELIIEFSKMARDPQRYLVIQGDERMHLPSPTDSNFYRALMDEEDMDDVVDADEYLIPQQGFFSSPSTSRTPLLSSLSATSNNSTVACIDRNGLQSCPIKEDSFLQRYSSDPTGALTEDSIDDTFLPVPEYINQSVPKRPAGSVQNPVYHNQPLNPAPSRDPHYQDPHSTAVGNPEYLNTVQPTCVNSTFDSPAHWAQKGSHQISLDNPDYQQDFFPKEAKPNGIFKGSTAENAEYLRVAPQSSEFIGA

SMILES | EC50 [1] | EC50 [2] | EC50 [3] | EC50 [4] | EC50 [5] | EC50 [6]
C=CC(=O)NCC1COc2cc3ncnc(Nc4ccc(Cl)c(Cl)c4F)c3cc21 (stereo not drawn) [Compound 34, N-((4-((3,4-dichloro-2-fluorophenyl)amino)-6,7-dihydrofuro[3,2-g]quinazolin-6-yl)methyl)acrylamide] | 200 to 1000 nM | 200 to 1000 nM | ≤ 200 nM | ≤ 200 nM | > 1000 nM | ≤ 200 nM
C=CC(=O)N1CCC(Oc2cc3c(C(=O)c4ccc(OC)cc4)ncnc3cc2OC)CC1 [Compound 174, 1-(4-((7-methoxy-4-(4-methoxybenzoyl)quinazolin-6-yl)oxy)piperidin-1-yl)prop-2-en-1-one] | > 1000 nM | > 1000 nM | > 1000 nM | > 1000 nM | > 1000 nM | > 1000 nM
C#CC(=O)N1CCC(Oc2cc3c(Nc4cccc5ccccc45)ncnc3cc2OC)CC1 [Compound 54, 1-(4-((7-methoxy-4-(naphthalen-1-ylamino)quinazolin-6-yl)oxy)piperidin-1-yl)prop-2-yn-1-one] | ≤ 200 nM | ≤ 200 nM | ≤ 200 nM | ≤ 200 nM | ≤ 200 nM | ≤ 200 nM
C=CC(=O)N1C2CCC1CC(Oc1cc3c(Nc4ccc(Cl)c(Cl)c4F)ncnc3cc1OC)C2 (stereo not drawn) [Compound 177, 1-(3-((4-((3,4-dichloro-2-fluorophenyl)amino)-7-methoxyquinazolin-6-yl)oxy)-8-azabicyclo[3.2.1]octan-8-yl)prop-2-en-1-one] | ≤ 200 nM | ≤ 200 nM | ≤ 200 nM | ≤ 200 nM | ≤ 200 nM | ≤ 200 nM
C=CC(=O)N1CCC(Oc2cc3c(Nc4cc5oc6ccccc6c5cc4OC)ncnc3cc2OC)CC1 [Compound 151, 1-(4-((7-methoxy-4-((2-methoxydibenzo[b,d]furan-3-yl)amino)quinazolin-6-yl)oxy)piperidin-1-yl)prop-2-en-1-one] | > 1000 nM | > 1000 nM | > 1000 nM | > 1000 nM | > 1000 nM | > 1000 nM
CC#CC(=O)NC1CC(Oc2cc3c(Nc4ccc(Cl)c(Cl)c4F)ncnc3cc2OC)C1 (stereo not drawn) [Compound 43, N-(3-((4-((3,4-dichloro-2-fluorophenyl)amino)-7-methoxyquinazolin-6-yl)oxy)cyclobutyl)but-2-ynamide] | 200 to 1000 nM | 200 to 1000 nM | > 1000 nM | ≤ 200 nM | > 1000 nM | 200 to 1000 nM
C=CC(=O)N1CC(c2cc3c(Nc4ccc(Cl)c(Cl)c4F)ncnc3cc2OC)C1 [Compound 1, 1-(3-(4-((3,4-dichloro-2-fluorophenyl)amino)-7-methoxyquinazolin-6-yl)azetidin-1-yl)prop-2-en-1-one] | ≤ 200 nM | ≤ 200 nM | ≤ 200 nM | ≤ 200 nM | ≤ 200 nM | ≤ 200 nM
C=CC(=O)N1CCC=C(c2cc3c(Nc4ccc(Cl)c(Cl)c4F)ncnc3cc2OC)C1 [Compound 186, 1-(5-(4-((3,4-dichloro-2-fluorophenyl)amino)-7-methoxyquinazolin-6-yl)-3,6-dihydropyridin-1(2H)-yl)prop-2-en-1-one] | ≤ 200 nM | 200 to 1000 nM | ≤ 200 nM | ≤ 200 nM | > 1000 nM | 200 to 1000 nM
COc1cc2ncnc(Nc3ccc(Cl)c(Cl)c3F)c2cc1C1=CCCN(C#N)C1 [Compound 197, 5-(4-((3,4-dichloro-2-fluorophenyl)amino)-7-methoxy-quinazolin-6-yl)-3,6-dihydropyridine-1(2H)-carbonitrile] | > 1000 nM | > 1000 nM | > 1000 nM | 200 to 1000 nM | > 1000 nM | > 1000 nM
C=CC(=O)NC1CC(Oc2cc3c(Nc4ccc(F)c5c4CCC5=O)ncnc3cc2OC)C1 (stereo not drawn) [Compound 68, N-(3-((4-((7-fluoro-1-oxo-2,3-dihydro-1H-inden-4-yl)amino)-7-methoxyquinazolin-6-yl)oxy)cyclobutyl)acrylamide] | > 1000 nM | > 1000 nM | > 1000 nM | > 1000 nM | > 1000 nM | > 1000 nM
C=CC(=O)N1CCC(Oc2cc3c(Nc4cccc5[nH]ccc45)ncnc3cc2OC)CC1 [Compound 165, 1-(4-((4-((1H-indol-4-yl)amino)-7-methoxyquinazolin-6-yl)oxy)piperidin-1-yl)prop-2-en-1-one] | 200 to 1000 nM | > 1000 nM | 200 to 1000 nM | ≤ 200 nM | 200 to 1000 nM | > 1000 nM
C=CC(=O)N1CCC(Oc2cc3c(NCc4cc(F)cc(Cl)c4)ncnc3cc2OC)CC1 [Compound 122, 1-(4-((4-((3-chloro-5-fluorobenzyl)amino)-7-methoxyquinazolin-6-yl)oxy)piperidin-1-yl)prop-2-en-1-one] | 200 to 1000 nM | 200 to 1000 nM | 200 to 1000 nM | ≤ 200 nM | 200 to 1000 nM | > 1000 nM
C=CC(=O)N1CC(c2cc3c(Nc4ccc(Cl)c(Cl)c4F)ncnc3cc2O[C@H]2CCOC2)C1 [Compound 22, (S)-1-(3-(4-((3,4-dichloro-2-fluorophenyl)amino)-7-((tetrahydrofuran-3-yl)oxy)quinazolin-6-yl)azetidin-1-yl)prop-2-en-1-one] | > 1000 nM | > 1000 nM | > 1000 nM | 200 to 1000 nM | > 1000 nM | > 1000 nM
C=CC(=O)N1CCC(Oc2cc3c(NCc4cccc(Cl)c4F)ncnc3cc2OC)CC1 [Compound 116, 1-(4-((4-((3-chloro-2-fluorobenzyl)amino)-7-methoxyquinazolin-6-yl)oxy)piperidin-1-yl)prop-2-en-1-one] | ≤ 200 nM | 200 to 1000 nM | ≤ 200 nM | ≤ 200 nM | 200 to 1000 nM | ≤ 200 nM
C=CC(=O)N1CC(c2cc3c(Nc4ccc(Cl)c(Cl)c4F)ncnc3cc2OCCOC)C1 [Compound 17, 1-(3-(4-((3,4-dichloro-2-fluorophenyl)amino)-7-(2-methoxyethoxy)quinazolin-6-yl)azetidin-1-yl)prop-2-en-1-one] | ≤ 200 nM | ≤ 200 nM | ≤ 200 nM | ≤ 200 nM | ≤ 200 nM | ≤ 200 nM
C#CC(=O)N1CCC(Oc2cc3c(Nc4ccc(Cl)c(Cl)c4F)ncnc3cc2OC)CC1 [Compound 52, 1-(4-((4-((3,4-dichloro-2-fluorophenyl)amino)-7-methoxyquinazolin-6-yl)oxy)piperidin-1-yl)prop-2-yn-1-one] | ≤ 200 nM | ≤ 200 nM | ≤ 200 nM | ≤ 200 nM | ≤ 200 nM | 200 to 1000 nM
C=CC(=O)N1C2CCCC1CC(Oc1cc3c(Nc4ccc5ccccc5c4)ncnc3cc1OC)C2 (stereo not drawn) [Compound 179, 1-(3-((7-methoxy-4-(naphthalen-2-ylamino)quinazolin-6-yl)oxy)-9-azabicyclo[3.3.1]nonan-9-yl)prop-2-en-1-one] | ≤ 200 nM | 200 to 1000 nM | ≤ 200 nM | ≤ 200 nM | ≤ 200 nM | ≤ 200 nM
C=CC(=O)N1CCC(Oc2cc3c(Nc4ccc5nccnc5c4)ncnc3cc2OC)CC1 [Compound 144, 1-(4-((7-methoxy-4-(quinoxalin-6-ylamino)quinazolin-6-yl)oxy)piperidin-1-yl)prop-2-en-1-one] | > 1000 nM | > 1000 nM | > 1000 nM | 200 to 1000 nM | > 1000 nM | > 1000 nM
C=CC(=O)N1CCC(Oc2cc3c(Nc4ccc5scnc5c4)ncnc3cc2OC)CC1 [Compound 142, 1-(4-((4-(benzo[d]thiazol-5-ylamino)-7-methoxyquinazolin-6-yl)oxy)piperidin-1-yl)prop-2-en-1-one] | ≤ 200 nM | > 1000 nM | 200 to 1000 nM | ≤ 200 nM | 200 to 1000 nM | ≤ 200 nM
COc1cc2ncnc(Nc3ccc(Cl)c(Cl)c3F)c2cc1OC1CC(NC(=O)/C=C/CN(C)C)C1 (stereo not drawn) [Compound 42, (E)-N-(3-((4-((3,4-dichloro-2-fluorophenyl)amino)-7-methoxyquinazolin-6-yl)oxy)cyclobutyl)-4-(dimethylamino)but-2-enamide] | ≤ 200 nM | 200 to 1000 nM | 200 to 1000 nM | ≤ 200 nM | > 1000 nM | 200 to 1000 nM
